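Method: 48-hour compound exposure of cells in 96-well plates, five concentrations, linear interpolation of endpoints. TGI: total growth inhibition.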
Legend:
Assay in all cases: NCI tumour cell line growth inhibition, 48 h
A498 renal = test system: A498 renal
A549 NSCLC = test system: A549 NSCLC
CCRF-CEM leukemia = test system: CCRF-CEM leukemia
COLO 205 colon = test system: COLO 205 colon
DLD-1 colon = test system: DLD-1 colon
DMS 114 small cell lung = test system: DMS 114 small cell lung
DMS 273 small cell lung = test system: DMS 273 small cell lung
EKVX NSCLC = test system: EKVX NSCLC
HCC-2998 colon = test system: HCC-2998 colon
HCT-116 colon = test system: HCT-116 colon
HCT-15 colon = test system: HCT-15 colon
HL-60(TB) leukemia = test system: HL-60(TB) leukemia
HOP-18 NSCLC = test system: HOP-18 NSCLC
HOP-62 NSCLC = test system: HOP-62 NSCLC
HT29 colon = test system: HT29 colon
IGROV1 ovarian = test system: IGROV1 ovarian
K-562 leukemia = test system: K-562 leukemia
KM12 colon = test system: KM12 colon
KM20L2 colon = test system: KM20L2 colon
LOX IMVI melanoma = test system: LOX IMVI melanoma
M19-MEL melanoma = test system: M19-MEL melanoma
MALME-3M melanoma = test system: MALME-3M melanoma
MCF7 breast = test system: MCF7 breast
MOLT-4 leukemia = test system: MOLT-4 leukemia
NCI-H226 lung = test system: NCI-H226 lung
NCI-H23 lung = test system: NCI-H23 lung
NCI-H460 lung = test system: NCI-H460 lung
NCI-H522 lung = test system: NCI-H522 lung
NCI/ADR-RES ovarian = test system: NCI/ADR-RES ovarian
OVCAR-3 ovarian = test system: OVCAR-3 ovarian
OVCAR-4 ovarian = test system: OVCAR-4 ovarian
OVCAR-5 ovarian = test system: OVCAR-5 ovarian
OVCAR-8 ovarian = test system: OVCAR-8 ovarian
P388 leukemia = test system: P388 leukemia
P388/ADR leukemia = test system: P388/ADR leukemia
RPMI-8226 leukemia = test system: RPMI-8226 leukemia
RXF 393 renal = test system: RXF 393 renal
SF-268 CNS = test system: SF-268 CNS
SF-295 CNS = test system: SF-295 CNS
SF-539 CNS = test system: SF-539 CNS
SK-MEL-2 melanoma = test system: SK-MEL-2 melanoma
SK-MEL-28 melanoma = test system: SK-MEL-28 melanoma
SK-MEL-5 melanoma = test system: SK-MEL-5 melanoma
SK-OV-3 ovarian = test system: SK-OV-3 ovarian
SN12C renal = test system: SN12C renal
SN12K1 renal = test system: SN12K1 renal
SNB-19 CNS = test system: SNB-19 CNS
SNB-75 CNS = test system: SNB-75 CNS
SW-620 colon = test system: SW-620 colon
U251 CNS = test system: U251 CNS
UACC-257 melanoma = test system: UACC-257 melanoma
UACC-62 melanoma = test system: UACC-62 melanoma
UO-31 renal = test system: UO-31 renal
XF 498 CNS = test system: XF 498 CNS
CAKI-1 renal = test system: CAKI-1 renal
HOP-92 NSCLC = test system: HOP-92 NSCLC
SNB-78 CNS = test system: SNB-78 CNS

CSc1nc(SC)c2cnn(CC3CO3)c2n1 (stereo unspecified)
TGI (A498 renal): > 100 µM
TGI (A549 NSCLC): 64.8 µM
TGI (CCRF-CEM leukemia): 70.5 µM
TGI (COLO 205 colon): 35.5 µM
TGI (DLD-1 colon): 53.9 µM
TGI (DMS 114 small cell lung): 32.6 µM
TGI (DMS 273 small cell lung): > 54.6 µM
TGI (EKVX NSCLC): > 75.4 µM
TGI (HCC-2998 colon): 31.3 µM
TGI (HCT-116 colon): 31.9 µM
TGI (HCT-15 colon): > 61.4 µM
TGI (HL-60(TB) leukemia): 45.4 µM
TGI (HOP-18 NSCLC): > 100 µM
TGI (HOP-62 NSCLC): 41.2 µM
TGI (HT29 colon): 47.1 µM
TGI (IGROV1 ovarian): 38.1 µM
TGI (K-562 leukemia): > 100 µM
TGI (KM12 colon): 39.2 µM
TGI (KM20L2 colon): 43.4 µM
TGI (LOX IMVI melanoma): 19.8 µM
TGI (M19-MEL melanoma): 27.1 µM
TGI (MALME-3M melanoma): 45.2 µM
TGI (MCF7 breast): 25.7 µM
TGI (MOLT-4 leukemia): 7.73 µM
TGI (NCI-H226 lung): 38.7 µM
TGI (NCI-H23 lung): 34.6 µM
TGI (NCI-H460 lung): 40.8 µM
TGI (NCI-H522 lung): 77.3 µM
TGI (NCI/ADR-RES ovarian): 36.3 µM
TGI (OVCAR-3 ovarian): > 65.1 µM
TGI (OVCAR-4 ovarian): 44.2 µM
TGI (OVCAR-5 ovarian): 41.3 µM
TGI (OVCAR-8 ovarian): 15.8 µM
TGI (P388 leukemia): > 54.5 µM
TGI (P388/ADR leukemia): > 57 µM
TGI (RPMI-8226 leukemia): > 100 µM
TGI (RXF 393 renal): 34 µM
TGI (SF-268 CNS): 33.9 µM
TGI (SF-295 CNS): 55.4 µM
TGI (SF-539 CNS): 38.5 µM
TGI (SK-MEL-2 melanoma): 31.7 µM
TGI (SK-MEL-28 melanoma): 18.6 µM
TGI (SK-MEL-5 melanoma): 17.8 µM
TGI (SK-OV-3 ovarian): > 100 µM
TGI (SN12C renal): > 50.1 µM
TGI (SN12K1 renal): 21.6 µM
TGI (SNB-19 CNS): > 100 µM
TGI (SNB-75 CNS): 44.7 µM
TGI (SW-620 colon): > 44.7 µM
TGI (U251 CNS): 45.4 µM
TGI (UACC-257 melanoma): 37.4 µM
TGI (UACC-62 melanoma): 33.5 µM
TGI (UO-31 renal): 45 µM
TGI (XF 498 CNS): 45.4 µM

COc1cccc2c1C(=O)c1c(O)c3c(c(O)c1C2=O)CC(O)(C(=O)CO)CC3OC1CC(N)C(I)C(C)O1 (stereo unspecified)
TGI (A498 renal): 21.4 µM
TGI (A549 NSCLC): > 55.1 µM
TGI (CAKI-1 renal): > 100 µM
TGI (CCRF-CEM leukemia): > 100 µM
TGI (COLO 205 colon): > 100 µM
TGI (DLD-1 colon): 13.7 µM
TGI (DMS 114 small cell lung): > 30.2 µM
TGI (DMS 273 small cell lung): 7.03 µM
TGI (EKVX NSCLC): > 55.5 µM
TGI (HCC-2998 colon): 27.1 µM
TGI (HCT-116 colon): 6.12 µM
TGI (HCT-15 colon): 14.6 µM
TGI (HL-60(TB) leukemia): > 100 µM
TGI (HOP-18 NSCLC): 65.7 µM
TGI (HOP-62 NSCLC): 13.9 µM
TGI (HOP-92 NSCLC): > 63 µM
TGI (HT29 colon): > 100 µM
TGI (IGROV1 ovarian): 18.4 µM
TGI (K-562 leukemia): > 100 µM
TGI (KM12 colon): > 100 µM
TGI (KM20L2 colon): > 54.2 µM
TGI (LOX IMVI melanoma): 9.15 µM
TGI (M19-MEL melanoma): 30.7 µM
TGI (MALME-3M melanoma): 25.1 µM
TGI (MCF7 breast): 29.4 µM
TGI (MOLT-4 leukemia): > 100 µM
TGI (NCI-H226 lung): 2.95 µM
TGI (NCI-H23 lung): 15.1 µM
TGI (NCI-H460 lung): 12.6 µM
TGI (NCI-H522 lung): > 100 µM
TGI (NCI/ADR-RES ovarian): > 31.6 µM
TGI (OVCAR-3 ovarian): > 57.6 µM
TGI (OVCAR-4 ovarian): 26.9 µM
TGI (OVCAR-5 ovarian): > 54.6 µM
TGI (OVCAR-8 ovarian): 34.1 µM
TGI (P388/ADR leukemia): > 20.1 µM
TGI (RPMI-8226 leukemia): > 100 µM
TGI (RXF 393 renal): 25.2 µM
TGI (SF-268 CNS): > 100 µM
TGI (SF-295 CNS): 23.3 µM
TGI (SF-539 CNS): 11.8 µM
TGI (SK-MEL-2 melanoma): 30.4 µM
TGI (SK-MEL-28 melanoma): > 100 µM
TGI (SK-MEL-5 melanoma): 14.5 µM
TGI (SK-OV-3 ovarian): 18.6 µM
TGI (SN12C renal): > 63.8 µM
TGI (SN12K1 renal): > 37.2 µM
TGI (SNB-19 CNS): > 100 µM
TGI (SNB-75 CNS): > 100 µM
TGI (SNB-78 CNS): > 100 µM
TGI (SW-620 colon): > 100 µM
TGI (U251 CNS): 19.3 µM
TGI (UACC-257 melanoma): > 52.3 µM
TGI (UACC-62 melanoma): 7.43 µM
TGI (UO-31 renal): 17.5 µM
TGI (XF 498 CNS): 22.2 µM

CCOCCOc1ccc(OCCOCC)cc1
TGI (A498 renal): > 61.8 µM
TGI (A549 NSCLC): > 100 µM
TGI (CCRF-CEM leukemia): 9.84 µM
TGI (COLO 205 colon): 33.3 µM
TGI (DLD-1 colon): 28.2 µM
TGI (DMS 114 small cell lung): 17.1 µM
TGI (DMS 273 small cell lung): > 58.4 µM
TGI (HCC-2998 colon): > 100 µM
TGI (HCT-116 colon): 33.4 µM
TGI (HCT-15 colon): 40.3 µM
TGI (HL-60(TB) leukemia): 12.7 µM
TGI (HOP-18 NSCLC): 61.3 µM
TGI (HOP-62 NSCLC): > 100 µM
TGI (HT29 colon): 38.9 µM
TGI (IGROV1 ovarian): 38 µM
TGI (K-562 leukemia): 24.2 µM
TGI (KM12 colon): > 100 µM
TGI (KM20L2 colon): 47.2 µM
TGI (LOX IMVI melanoma): 33.8 µM
TGI (M19-MEL melanoma): > 62.5 µM
TGI (MALME-3M melanoma): 45.8 µM
TGI (MCF7 breast): 32.9 µM
TGI (MOLT-4 leukemia): > 43 µM
TGI (NCI-H226 lung): > 73.1 µM
TGI (NCI-H23 lung): > 100 µM
TGI (NCI-H460 lung): > 73.7 µM
TGI (NCI/ADR-RES ovarian): 39.3 µM
TGI (OVCAR-3 ovarian): > 49.3 µM
TGI (OVCAR-4 ovarian): 20.7 µM
TGI (OVCAR-5 ovarian): > 100 µM
TGI (OVCAR-8 ovarian): 35.4 µM
TGI (P388 leukemia): > 100 µM
TGI (RPMI-8226 leukemia): 26.4 µM
TGI (RXF 393 renal): 33 µM
TGI (SF-268 CNS): 36 µM
TGI (SF-295 CNS): > 57.2 µM
TGI (SK-MEL-2 melanoma): > 63.7 µM
TGI (SK-MEL-28 melanoma): 40.8 µM
TGI (SK-MEL-5 melanoma): > 54 µM
TGI (SK-OV-3 ovarian): > 100 µM
TGI (SN12C renal): 31.8 µM
TGI (SN12K1 renal): 31.6 µM
TGI (SNB-19 CNS): > 100 µM
TGI (SNB-75 CNS): 52.8 µM
TGI (SNB-78 CNS): > 57.7 µM
TGI (SW-620 colon): 40.1 µM
TGI (U251 CNS): > 100 µM
TGI (UACC-257 melanoma): 32.3 µM
TGI (UACC-62 melanoma): 38.7 µM
TGI (UO-31 renal): 26.9 µM
TGI (XF 498 CNS): 30.1 µM

Source: PubChem BioAssay (NCI)
